Numbered stars: 1 amine (or outer) side, 2 acyl side, 3 side chain; on linkers, the order of the positions; unused ones are H or OH. Bridge positions count the residues as written; N and C are the ends. Square brackets hold non-standard residues; d marks the D form. Side chains are listed from the residue outwards. Peptide text beside a SMILES is read from it. * marks the point of attachment. C18 diacid = O=C(O)CCCCCCCCCCCCCCCCC(=O)*; γGlu = O=C(O)[C@H](CCC(=O)[*:2])N[*:1]; αMeF = C[C@](N)(Cc1ccccc1)C(=O)O; αMeS = C[C@](N)(CO)C(=O)O; Dab = NCC[C@H](N)C(=O)O; Aib = CC(C)(N)C(=O)O
Legend:
[1] = biological target: T1, human amylin receptor (calcitonin receptor co-expressed with receptor activity modifying protein, RAMP3) (hAMYR3) (Homo sapiens, UniProt O60896+P30988); experiment: cAMP production in 1321N1 cells with stable recombinant expression of human amylin receptor (hAMYR3); assay type: cell-based; settings: for Ratio (selectivity hAMYR vs hCTR, ratio of EC50 values at the two receptors): EC50 hCTR / EC50 hAMYR3; for EC50: cAMP, 1321N1 cells, assay buffer with 0.1% BSA, read-out: EC50 (pM) hAMYR3
T1 construct: expressed in transfected cells
T1 sequence (P30988 25-474): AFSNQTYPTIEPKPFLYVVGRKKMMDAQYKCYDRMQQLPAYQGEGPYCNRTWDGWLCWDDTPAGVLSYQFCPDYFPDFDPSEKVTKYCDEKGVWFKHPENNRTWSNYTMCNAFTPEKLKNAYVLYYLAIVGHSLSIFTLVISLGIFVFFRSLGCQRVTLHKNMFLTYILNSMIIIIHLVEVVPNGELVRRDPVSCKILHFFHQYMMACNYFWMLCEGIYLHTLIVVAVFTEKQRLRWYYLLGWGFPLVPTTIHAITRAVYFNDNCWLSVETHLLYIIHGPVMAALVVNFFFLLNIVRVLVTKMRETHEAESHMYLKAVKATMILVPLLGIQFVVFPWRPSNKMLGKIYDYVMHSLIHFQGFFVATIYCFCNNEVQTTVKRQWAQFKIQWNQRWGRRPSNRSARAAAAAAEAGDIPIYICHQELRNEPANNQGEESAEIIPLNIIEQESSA
T1 sequence (O60896 24-148 partner): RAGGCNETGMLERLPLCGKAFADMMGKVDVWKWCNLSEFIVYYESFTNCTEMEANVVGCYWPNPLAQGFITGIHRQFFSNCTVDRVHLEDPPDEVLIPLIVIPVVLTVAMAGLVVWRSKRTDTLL
Method: (§1) The functional activities of lipidated pramlintide analogue peptides, such as cAMP production, were tested in 1321N1 cell line with stable recombinant expression of human calcitonin receptor (hCTR) or human amylin receptor (calcitonin receptor co-expressed with receptor activity modifying protein, RAMP3) (hAMYR3) or HEK cells with stable recombinant expression of rat calcitonin receptor (rat CTR) or rat amylin receptor (calcitonin receptor co-expressed with receptor activity modifying protein, RAMP3) (Rat AMYR3).
(§2) Cryopreserved cell stock was thawed rapidly in a water-bath, suspended in assay buffer (0.1% BSA (Sigma # A3059) in HBSS (Sigma # H8264) with 25 mM HEPES, pH 7.4 and containing 0.5 mM IB MX (Sigma# 17018)) and spun at 240×g for 5 minutes. Cells were re-suspended in assay buffer at a batch-dependent optimized concentration (e.g. hCTR cells at 0.125×10^5 cells/mL, hAMYR3 cells at 0.125×10^5 cells/mL, rat CTR cells at 1x10^5 cells/mL, rat AMYR3 at 2×10^5 cells/mL).
(§3) The test peptide stock was prepared in DMSO and diluted in assay buffer to reach stated concentrations and transferred in duplicates into a 384-black shallow well microtitre assay plate (Corning # 3676). Cells were added to the assay plate, incubated at room temperature for 30 minutes and the cAMP level measured using cAMP dynamic 2 HTRF kit (Cisbio, Cat # 62AM4PEJ), following the two step protocol as per manufacturer's recommendations. The plates were read on an Envision (Perkin Elmer) using excitation wavelength of 320 nm and emission wavelengths of 620nm & 665 nm.
(§4) Data was transformed to % Delta F as described in the manufacturer's guidelines and analyzed as percent activation of maximal amylin or calcitonin effect by 4-parameter logistic fit to determine EC50 values. The selectivity of a peptide to hAMYR vs hCTR is defined as a ratio of EC50 values at the two receptors.

[2] = biological target: T2, human calcitonin receptor (hCTR) (Homo sapiens, UniProt P30988); experiment: cAMP production in 1321N1 cells with stable recombinant expression of human calcitonin receptor (hCTR); assay type: cell-based; settings: cAMP, 1321N1 cells, assay buffer with 0.1% BSA; read-out: EC50 (pM) hCTR
T2 construct: expressed in transfected cells
T2 sequence (P30988 25-474): T1 sequence (P30988 25-474)
Method: as §1, §2, §3, §4

Row | Compound | Ratio (selectivity hAMYR vs hCTR, ratio of EC50 values at the two receptors) [1] | EC50 [1] | EC50 [2]
1 | CC[C@H](C)[C@H](NC(=O)[C@@H]1CCCN1C(=O)CNC(=O)[C@H](Cc1ccccc1)NC(=O)[C@H](CC(N)=O)NC(=O)[C@H](CC(N)=O)NC(=O)[C@](C)(CO)NC(=O)[C@H](CO)NC(=O)[C@H](Cc1c[nH]cn1)NC(=O)[C@@H](NC(=O)[C@H](CC(C)C)NC(=O)[C@H](Cc1ccccc1)NC(=O)[C@H](CC(N)=O)NC(=O)[C@H](C)NC(=O)[C@H](CC(C)C)NC(=O)[C@H](CCCNC(=N)N)NC(=O)[C@H](CCC(N)=O)NC(=O)[C@@H](NC(=O)[C@H](C)NC(=O)[C@@H]1CSSC[C@H](NC(=O)[C@@H](N)CCCCNC(=O)CC[C@H](NC(=O)CC[C@H](NC(=O)CCCCCCCCCCCCCCCCC(=O)O)C(=O)O)C(=O)O)C(=O)N[C@@H](CC(N)=O)C(=O)N[C@@H]([C@@H](C)O)C(=O)N[C@@H](C)C(=O)N[C@@H]([C@@H](C)O)C(=O)N1)[C@@H](C)O)C(C)C)C(=O)N[C@@H](CC(C)C)C(=O)N1CCC[C@H]1C(=O)N1CCC[C@H]1C(=O)N[C@H](C(=O)N[C@@H](CC(N)=O)C(=O)N[C@H](C(=O)NCC(=O)N[C@@H](CO)C(=O)N[C@@H](CC(N)=O)C(=O)N[C@H](C(=O)N[C@@H](Cc1ccc(O)cc1)C(N)=O)[C@@H](C)O)C(C)C)[C@@H](C)O [Peptide 22, K(γE-γE-C18diacid)[CNTATC]ATQRLANFLVHS(αMeSer)NNFGPILPPTNVGSNTY-amide] (H-K([γGlu-γGlu-C18 diacid])CNTATCATQRLANFLVHS[αMeS]NNFGPILPPTNVGSNTY-NH2; disulfide 2-7; N-terminus assumed) | 40 | 162 pM | 6540 pM
2 | CC[C@H](C)[C@H](NC(=O)[C@@H]1CCCN1C(=O)CNC(=O)[C@](C)(Cc1ccccc1)NC(=O)[C@H](CC(N)=O)NC(=O)[C@H](CC(N)=O)NC(=O)[C@H](CO)NC(=O)[C@H](CO)NC(=O)[C@H](Cc1c[nH]cn1)NC(=O)[C@@H](NC(=O)[C@H](CC(C)C)NC(=O)[C@H](Cc1ccccc1)NC(=O)[C@H](CC(N)=O)NC(=O)[C@H](C)NC(=O)[C@H](CC(C)C)NC(=O)[C@H](CCCNC(=N)N)NC(=O)[C@H](CCC(N)=O)NC(=O)[C@@H](NC(=O)[C@H](C)NC(=O)[C@@H]1CSSC[C@H](NC(=O)[C@@H](N)CCCCNC(=O)CC[C@H](NC(=O)CC[C@H](NC(=O)CCCCCCCCCCCCCCCCC(=O)O)C(=O)O)C(=O)O)C(=O)N[C@@H](CC(N)=O)C(=O)N[C@@H]([C@@H](C)O)C(=O)N[C@@H](C)C(=O)N[C@@H]([C@@H](C)O)C(=O)N1)[C@@H](C)O)C(C)C)C(=O)N[C@@H](CC(C)C)C(=O)N1CCC[C@H]1C(=O)N1CCC[C@H]1C(=O)N[C@H](C(=O)N[C@@H](CCC(=O)O)C(=O)N[C@H](C(=O)NCC(=O)N[C@@H](CO)C(=O)N[C@@H](CC(N)=O)C(=O)N[C@H](C(=O)N[C@@H](Cc1ccc(O)cc1)C(N)=O)[C@@H](C)O)C(C)C)[C@@H](C)O [Peptide 23, K(γE-γE-C18diacid)[CNTATC]ATQRLANFLVHSSNN(αMePhe)GPILPPTEVGSNTY-amide] (H-K([γGlu-γGlu-C18 diacid])CNTATCATQRLANFLVHSSNN[αMeF]GPILPPTEVGSNTY-NH2; disulfide 2-7) | 2 | 238 pM | 589 pM
3 | CC[C@H](C)[C@H](NC(=O)[C@@H]1CCCN1C(=O)CNC(=O)[C@](C)(Cc1ccccc1)NC(=O)[C@H](CC(N)=O)NC(=O)[C@H](CC(N)=O)NC(=O)[C@H](CO)NC(=O)[C@H](CO)NC(=O)[C@H](Cc1c[nH]cn1)NC(=O)C(C)(C)NC(=O)[C@H](CC(C)C)NC(=O)[C@H](Cc1ccccc1)NC(=O)[C@H](CC(N)=O)NC(=O)[C@H](C)NC(=O)[C@H](CC(C)C)NC(=O)[C@H](CCCNC(=N)N)NC(=O)[C@H](CCC(N)=O)NC(=O)[C@@H](NC(=O)[C@H](C)NC(=O)[C@@H]1CSSC[C@H](NC(=O)[C@@H](N)CCCCNC(=O)CC[C@H](NC(=O)CC[C@H](NC(=O)CCCCCCCCCCCCCCCCC(=O)O)C(=O)O)C(=O)O)C(=O)N[C@@H](CC(N)=O)C(=O)N[C@@H]([C@@H](C)O)C(=O)N[C@@H](C)C(=O)N[C@@H]([C@@H](C)O)C(=O)N1)[C@@H](C)O)C(=O)N[C@@H](CC(C)C)C(=O)N1CCC[C@H]1C(=O)N1CCC[C@H]1C(=O)N[C@H](C(=O)N[C@@H](CC(N)=O)C(=O)N[C@H](C(=O)NCC(=O)N[C@@H](CO)C(=O)N[C@@H](CC(N)=O)C(=O)N[C@H](C(=O)N[C@@H](Cc1ccc(O)cc1)C(N)=O)[C@@H](C)O)C(C)C)[C@@H](C)O [Peptide 26, K(γE-γE-C18diacid)[CNTATC]ATQRLANFL(Aib)HSSNN(αMePhe)GPILPPTNVGSNTY-amide] (H-K([γGlu-γGlu-C18 diacid])CNTATCATQRLANFL[Aib]HSSNN[αMeF]GPILPPTNVGSNTY-NH2; disulfide 2-7) | 7 | 409 pM | 2800 pM
4 | CC[C@H](C)[C@@H]1NC(=O)[C@H](CC(N)=O)NC(=O)[C@@H](NC(=O)[C@@H](N)CCCCNC(=O)CC[C@H](NC(=O)CC[C@H](NC(=O)CCCCCCCCCCCCCCCCC(=O)O)C(=O)O)C(=O)O)CSSC[C@@H](C(=O)N[C@@H](C)C(=O)N[C@H](C(=O)N[C@@H](CCC(N)=O)C(=O)N[C@@H](CCCNC(=N)N)C(=O)N[C@@H](CC(C)C)C(=O)N[C@@H](C)C(=O)N[C@@H](CC(N)=O)C(=O)N[C@@H](Cc2ccccc2)C(=O)N[C@@H](CC(C)C)C(=O)N[C@H](C(=O)N[C@@H](Cc2c[nH]cn2)C(=O)N[C@@H](CO)C(=O)N[C@@H](CO)C(=O)N[C@@H](CCN)C(=O)N[C@@H](CC(N)=O)C(=O)N[C@@H](Cc2ccccc2)C(=O)NCC(=O)N2CCC[C@H]2C(=O)N[C@H](C(=O)N[C@@H](CC(C)C)C(=O)N2CCC[C@H]2C(=O)N2CCC[C@H]2C(=O)N[C@H](C(=O)N[C@@H](CC(N)=O)C(=O)N[C@H](C(=O)NCC(=O)N[C@@H](CO)C(=O)N[C@@H](CCCNC(=N)N)C(=O)N[C@H](C(=O)N[C@@H](Cc2ccc(O)cc2)C(N)=O)[C@@H](C)O)C(C)C)[C@@H](C)O)[C@@H](C)CC)C(C)C)[C@@H](C)O)NC(=O)[C@H]([C@@H](C)O)NC(=O)[C@H](C)NC1=O [Peptide 27, K(γE-γE-C18diacid)[CNIATC]ATQRLANFLVHSS(Dab)NFGPILPPTNVGSRTY-amide] (H-K([γGlu-γGlu-C18 diacid])CNIATCATQRLANFLVHSS[Dab]NFGPILPPTNVGSRTY-NH2; disulfide 2-7; N-terminus assumed) | 5 | 134 pM | 731 pM

— patent US20240067693A1, “POLYPEPTIDES AND USES THEREOF” (MEDIMMUNE LIMITED, priority 2020, published 2024)
